Here are results for eight molecules from patent US10875829B1, “Azetidine derivatives useful as modulators of cortical catecholaminergic neurotransmission” (Integrative Research Laboratories Sweden AB, priority 2016, dated 2020).

The target in assay [1] is Human Norepinephrine Transporter (NET (h)) (Homo sapiens (Human), UniProt P23975). Description: Radioligand binding assay, human norepinephrine transporter ([3H]nisoxetine). As to conditions: for inhibition at 10 µM: 2 h, single concentration 1.0 E-5 M, duplicate, mean values; for IC50: dose-response curves. How it is done:
(The measurement was performed as described in Pacholczyk, T., Blakely, R. D. and Amara, S. G. (1991), Expression cloning of a cocaine- and antidepressant-sensitive human noradrenaline transporter, Nature, 350: 350)
Cell membrane homogenates (20 μg protein) are incubated for 120 min at 4° C. with 1 nM [3H]nisoxetine in the absence or presence of the test compound in a buffer containing 50 mM Tris-HCl (pH 7.4), 120 mM NaCl and 5 mM KCl. Nonspecific binding is determined in the presence of 1 μM desipramine. Following incubation, the samples are filtered rapidly under vacuum through glass fiber filters (GF/B, Packard) presoaked with 0.3% PEI and rinsed several times with ice-cold 50 mM Tris-HCl using a 96-sample cell harvester (Unifilter, Packard). The filters are dried then counted for radioactivity in a scintillation counter (Topcount, Packard) using a scintillation cocktail (Microscint 0, Packard).
The results are expressed as a percent inhibition of the control radioligand specific binding.
(§1) […] Reported values are mean values.

Assay [2] deals with Human 5-HT Transporter (SERT (h)) (Homo sapiens (Human), UniProt P31645). Description: Radioligand binding assay, human 5-HT transporter ([3H]imipramine). The note with it: for inhibition at 10 µM: 1 h, single concentration 1.0 E-5 M, duplicate, mean values; for IC50: dose-response curves. How it is done:
(The measurement was performed as described in Tatsumi, M., Jansen, K., Blakely, R. D. and Richelson, E. (1999), Pharmacological profile of neuroleptics at human monoamine transporters, Eur. J. Pharmacol.
Cell membrane homogenates (12 μg protein) are incubated for 60 min at 22° C. with 2 nM [3H]imipramine in the absence or presence of the test compound in a buffer containing 50 mM Tris-HCl (pH 7.4), 120 mM NaCl, 5 mM KCl and 0.1% BSA.
Nonspecific binding is determined in the presence of 10 μM imipramine.
Following incubation, the samples are filtered rapidly under vacuum through glass fiber filters (GF/B, Packard) presoaked with 0.3% PEI and rinsed several times with an ice-cold buffer containing 50 mM Tris-HCl and 150 mM NaCl using a 96-sample cell harvester (Unifilter, Packard). The filters are dried then counted for radioactivity in a scintillation counter (Topcount, Packard) using a scintillation cocktail (Microscint 0, Packard).
The results are expressed as a percent inhibition of the control radioligand specific binding
as §1

A further assay deals with NA, DA and 5-HT. The experiment in a line: In vivo brain microdialysis: extracellular monoamines in striatum and frontal cortex. Also noted: species or system Sprague-Dawley rats. As to conditions: for response vs control in vivo at 50 µmol/kg / response vs control in vivo at 16.7 µmol/kg: Rattus norvegicus, sc. The text has this:
The microdialysis technique is a well-established technique for measuring extracellular levels of neurotransmitters (Ungerstedt, J Int Med, 1991, 230; 365-73). The microdialysis technique was used to measure the effect of compounds disclosed herein upon the efflux of monoamine transmitters (NA, DA and 5-HT) in striatum and frontal cortex in conscious, freely moving rats.
Male Sprague-Dawley rats weighing 280-320 g were used throughout the experiments. Before the experiment the animals were housed in groups, maximum five animals in each cage, with free access to water and food. The animals were housed at least one week prior to surgery and use in the experiments.
A modified version (Waters et al., J Neural Transm Gen Sect, 1994, 98(1); 39-55) of the !-shaped probe (Santiago and Westerink, N-S Arch Pharmacol, 1990, 342; 407-14) with the AN69 polyacrylonitrile/sodium methyl sulfonate copolymer (HOSPAL; o.d/i.d. 310/220 μm: dialysis membrane (Gambro, Lund, Sweden) was used in the microdialysis experiments. In the dorsal striatum, probes with an exposed length of 3 mm of dialysis membrane were used and in the prefrontal cortex the corresponding length was 2.5 mm. The rats were operated under isoflurane inhalation anesthesia while mounted into a Kopf stereotaxic instrument. Coordinates were calculated relative to bregma; dorsal striatum AP+1.0, ML±2.6, DV 6.2; Pf cortex, AP+3.2, ML±1.2, DV −4.0 8°, according to Paxinos and Watson (New York, Academic Press, 1986; FIG. 8 and FIG. 14). The dialysis probe was positioned in a burr hole under stereotaxic guidance and cemented with phosphatine dental cement (DAB Dental).
The rats were housed individually in cages for 48 h before the dialysis experiments, allowing them to recover from surgery and minimizing the risk of drug interactions with the anesthetics during the following experiments. During this period the rats had free access to food and water. On the day of the experiment the rats were connected to a micro-perfusion pump via a swivel and were replaced in the cage where they could move freely within its confinements. The perfusion medium was a Ringer's solution containing (in mmol/l): NaCl; 140, CaCl2); 1.2, KCl; 3.0, MgCl2; 1.0 (Moghaddam and Bunney. Neurochem., 1989, 53; 652-4). The pump was set to a perfusion speed of 2 μl/min and 40 μl sample volume were collected every 20 min.
The rats were perfused for at least 40 min before sampling began. Five fractions of each 20 min were collected and the last three were used for the establishment of the baseline. After collection of baseline fractions, the pharmacological challenge to the dialysis experiment started. Test compounds were administrated by injection (s.c.) in a volume of 5 ml/kg, with 0.9% NaCl (saline) as vehicle.
The analytical method were based on two chromatographic separations dedicated for amines or acids. Two chromatographic systems shared a common auto injector with a 10-port valve and two sample loops for simultaneous injection on the two systems.
The acids were separated by reversed phase chromatography while the amines were separated by reversed phase ion pairing chromatography preceded by a reverse phase separation in a column switching configuration. Three separation columns (Luna C18 (2), dp 3 μm, 2 mm i.d., Phenomenex) of different lengths were used. Electrochemical detection was accomplished on glassy carbon electrodes (MF-1000, Bioanalytical Systems, Inc.)
The aqueous mobile phase (0.6 ml/min) for the acid system contained citric acid (40 mM, dipotassium hydrogen phosphate 10 mM, methanol 8-11% (v/v) and EDTA 0.1 mM. Column length was 30 mm and detection potential relative to Ag/AgCl reference was 0.74V.
The aqueous ion pairing mobile phase (0.4 ml/min) for the amine system contained citric acid 5 mM, sodium citrate 10 mM, acetone 9% (v/v), tetrahydrofurane 3% (v/v), dodecane sulphonic acid 0.025 mM, and EDTA 0.1 mM. Column length was 50 mm and the preceding column was 20 mm. […]

Where [3] appears, read: 50 μmol/kg s.c., striatum, n=1-3.
Setting [4] is: 50 μmol/kg s.c., frontal cortex, n=1-3, read-out: 5-HT FC, maximum effect compared to baseline ± SEM.
Where [5] appears, read: 50 μmol/kg s.c., striatum, n=1-3, read-out: 5-HT Stri, maximum effect compared to baseline ± SEM.
[6] abbreviates: 50 μmol/kg s.c., striatum, n=1-3, read-out: DA Stri, maximum effect compared to baseline ± SEM.
[7] abbreviates: 50 μmol/kg s.c., frontal cortex, n=1-3, read-out: DA FC, maximum effect compared to baseline ± SEM.
The mark [8] stands for this setting: ratio of IC50 values of Table 6.

Counter-ions that a name gives are not always drawn. Like-named read-outs stand apart in the source and are kept apart here. Marks after values point to notes of the source that are not given here.

Sequence of Human Norepinephrine Transporter (NET (h)) (P23975 whole entry): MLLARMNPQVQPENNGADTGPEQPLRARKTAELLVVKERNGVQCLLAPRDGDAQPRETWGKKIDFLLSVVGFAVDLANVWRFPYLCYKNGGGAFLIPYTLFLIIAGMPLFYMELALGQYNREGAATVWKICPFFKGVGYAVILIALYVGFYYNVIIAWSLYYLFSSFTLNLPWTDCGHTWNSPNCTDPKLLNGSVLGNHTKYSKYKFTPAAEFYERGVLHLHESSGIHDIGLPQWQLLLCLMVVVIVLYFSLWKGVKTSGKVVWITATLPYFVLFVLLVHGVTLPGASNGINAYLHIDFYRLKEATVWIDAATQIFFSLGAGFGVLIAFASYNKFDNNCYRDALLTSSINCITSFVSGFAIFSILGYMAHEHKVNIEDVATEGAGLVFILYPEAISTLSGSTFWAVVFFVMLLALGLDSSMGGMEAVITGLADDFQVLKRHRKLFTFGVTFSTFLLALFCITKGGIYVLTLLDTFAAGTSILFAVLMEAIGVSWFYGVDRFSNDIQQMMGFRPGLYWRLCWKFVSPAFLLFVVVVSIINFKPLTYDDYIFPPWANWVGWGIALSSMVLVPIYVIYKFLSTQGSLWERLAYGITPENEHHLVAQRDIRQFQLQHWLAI
Sequence of Human 5-HT Transporter (SERT (h)) (P31645 whole entry): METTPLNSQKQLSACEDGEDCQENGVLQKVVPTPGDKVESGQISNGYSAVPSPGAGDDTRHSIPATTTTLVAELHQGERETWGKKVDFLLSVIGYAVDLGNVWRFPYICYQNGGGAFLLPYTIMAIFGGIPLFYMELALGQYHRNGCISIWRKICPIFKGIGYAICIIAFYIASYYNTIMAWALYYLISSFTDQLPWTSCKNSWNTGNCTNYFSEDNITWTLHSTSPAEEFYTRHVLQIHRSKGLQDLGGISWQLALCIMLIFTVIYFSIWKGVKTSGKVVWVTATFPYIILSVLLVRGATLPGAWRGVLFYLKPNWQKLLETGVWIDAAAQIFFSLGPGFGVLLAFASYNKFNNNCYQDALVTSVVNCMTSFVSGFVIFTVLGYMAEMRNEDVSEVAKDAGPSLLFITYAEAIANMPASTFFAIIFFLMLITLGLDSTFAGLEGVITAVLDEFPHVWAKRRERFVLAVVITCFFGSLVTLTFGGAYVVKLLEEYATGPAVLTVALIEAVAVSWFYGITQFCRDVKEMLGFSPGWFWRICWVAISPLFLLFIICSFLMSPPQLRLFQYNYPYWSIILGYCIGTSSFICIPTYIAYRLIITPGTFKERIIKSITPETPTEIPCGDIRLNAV

In the case of `Fc1cccc(OC2CNC2)c1F` [Example 1A, 3-(2,3-difluorophenoxy)azetidine hydrochloric acid salt], the inhibition at 10 µM was 37% in assay [1] and 59% in assay [2]. The IC50 was found to be 79 µM in assay [1] and 34 µM in assay [2]. Moreover, the “NA Stri, maximum effect compared to baseline ± SEM” value in the assay with NA, DA and 5-HT (setting [3]) was 155 ± 33^a % of control. The response vs control in vivo at 50 µmol/kg in the assay with NA, DA and 5-HT (setting [4]) was 207 ± 49%; in the assay with NA, DA and 5-HT (setting [5]), 217 ± 21%; in the assay on NA, DA and 5-HT (setting [6]) it was 155 ± 9.6%.
Regarding `Fc1cc(F)c(F)c(OC2CNC2)c1` [Example 2, 3-(2,3,5-trifluorophenoxy)azetidine hydrochloric acid salt], the inhibition at 10 µM worked out at 25% in assay [1] and 12% in assay [2]. Also, the response vs control in vivo at 50 µmol/kg in the assay with NA, DA and 5-HT (setting [4]) is 160 ± 32%; in the assay on NA, DA and 5-HT (setting [7]), 600 ± 5.8%; in the assay with NA, DA and 5-HT (setting [5]), 202 ± 5.6%; with NA, DA and 5-HT (setting [6]), 134 ± 13%.
On to `Fc1cc(F)c(F)c(OC2CNC2)c1F` [Example 3, 3-(2,3,5,6-tetrafluorophenoxy)-azetidine hydrochloric acid salt], for which the results for the inhibition at 10 µM in assay [1] and in assay [2] were 25% and 11%, respectively. Further, the response vs control in vivo at 50 µmol/kg with NA, DA and 5-HT (setting [4]) came out at 205 ± 78%; in the assay on NA, DA and 5-HT (setting [7]), 735 ± 18%; in the assay with NA, DA and 5-HT (setting [5]) it was 197 ± 80%; in the assay on NA, DA and 5-HT (setting [6]), 196 ± 22%.
`Fc1ccc(F)c(OC2CNC2)c1F` [Example 20, 3-(2,3,6-trifluorophenoxy)azetidine hydrochloric acid salt]: the inhibition at 10 µM was determined as 10% in assay [1] and 6% in assay [2]. For the same molecule, the response vs control in vivo at 50 µmol/kg with NA, DA and 5-HT (setting [4]) is 164 ± 36%; in the assay with NA, DA and 5-HT (setting [7]), 441 ± 35%; with NA, DA and 5-HT (setting [5]) it was 141%; with NA, DA and 5-HT (setting [6]) it was 146 ± 4%.
Regarding `CCN1CC(Oc2c(F)c(F)cc(F)c2F)C1` [Example 39, 1-ethyl-3-(2,3,5,6-tetrafluorophenoxy)azetidine hydrochloric acid salt], the inhibition at 10 µM in assay [1] was 11%; in assay [2], 1.5%. Also, the “NA Stri, maximum effect compared to baseline ± SEM” value with NA, DA and 5-HT (setting [3]) was 334 ± 10^a % of control. Further, the response vs control in vivo at 50 µmol/kg in the assay with NA, DA and 5-HT (setting [4]) worked out at 256%; in the assay on NA, DA and 5-HT (setting [7]), 359%; in the assay on NA, DA and 5-HT (50 μmol/kg s.c., frontal cortex, n=1-3, read-out: NA FC, maximum effect compared to baseline ± SEM), 414%; in the assay on NA, DA and 5-HT (setting [5]), 281%; in the assay on NA, DA and 5-HT (setting [6]) it was 218 ± 18%.
`Fc1cc(F)cc(OC2CNC2)c1.O=C(O)C(O)C(O)C(=O)O` [Example 52B, 3-(3,5-difluorophenoxy)azetidine (+)-tartaric acid salt]: in the assay on NA, DA and 5-HT (Dose 16.7 μmol/kg s.c, striatum), the “NA Stri, maximum effect compared to baseline ± SEM” value is given as 151^b % of control. Also, the response vs control in vivo at 16.7 µmol/kg with NA, DA and 5-HT (Dose 16.7 μmol/kg s.c, frontal cortex, read-out: 5-HT FC, maximum effect compared to baseline ± SEM) was found to be 213 ± 86%; in the assay on NA, DA and 5-HT (Dose 16.7 μmol/kg s.c, frontal cortex, read-out: DA FC, maximum effect compared to baseline ± SEM), 638 ± 106%; in the assay with NA, DA and 5-HT (Dose 16.7 μmol/kg s.c, frontal cortex, read-out: NA FC, maximum effect compared to baseline ± SEM) it was 968 ± 176%; with NA, DA and 5-HT (Dose 16.7 μmol/kg s.c, striatum, read-out: 5-HT Stri, maximum effect compared to baseline ± SEM) it was 146 ± 18%; in the assay with NA, DA and 5-HT (Dose 16.7 μmol/kg s.c, striatum, read-out: DA Stri, maximum effect compared to baseline ± SEM), 120 ± 6%.
Consider `Fc1cc(F)cc(OC2CNC2)c1` [Example 52C, 3-(3,5-difluorophenoxy)azetidine hydrochloric acid salt], for which the figures for the inhibition at 10 µM in assay [1] and in assay [2] were 25% and 29%, respectively. Also, in the assay on NA, DA and 5-HT (setting [3]), the “NA Stri, maximum effect compared to baseline ± SEM” value is recorded as 196 ± 26^a % of control. In addition, the response vs control in vivo at 50 µmol/kg with NA, DA and 5-HT (setting [4]) was found to be 424 ± 119%; in the assay with NA, DA and 5-HT (setting [6]) it was 147 ± 6%.
Turning to `Clc1ccc(OC2CNC2)cc1Cl` [Reference Compound, 3-(3,4-dichlorophenoxy)azetidine hydrochloric acid salt, reference compound], the values for the inhibition at 10 µM in assay [1] and in assay [2] were 84% and 92%, respectively. The IC50 in assay [1] came to 2.2 µM; in assay [2], 1.3 µM. Also, the “fold more potent than Example 1A at NET” value in assay [1] (setting [8]) is listed as 36 fold. Moreover, the “fold more potent than Example 1A at SERT” value in assay [2] (setting [8]) is 26 fold. Also, the “NA Stri, maximum effect compared to baseline ± SEM” value in the assay with NA, DA and 5-HT (setting [3]) is reported as 987 ± 425 % of control. The response vs control in vivo at 50 µmol/kg with NA, DA and 5-HT (setting [4]) stood at 682 ± 14%; with NA, DA and 5-HT (setting [6]), 136 ± 48%.

The term inhibition denotes the drop in the measured response relative to a control, in per cent. A high value points to a response far below the control. The IC50 is the point on the concentration scale where inhibition reaches its midpoint. The low end stands for higher potency, the high end for lower potency.
